# Reference: patent publication US20210330756A1, “Acetylation of Miro1” (University of South Carolina, priority 2020, published 2021)
# System: axonal mitochondria of DRG neurons
# Assay: Live cell imaging of axonal mitochondrial movement in cultured DRG neurons
# Type: cell-based, rat
# Excerpt: HDAC6 inhibition was previously shown to increase transport of mitochondria in axons of embryonic rodent hippocampal and chick sensory neurons (Chen et al., 2010; Kim et al., 2012; Rui and Zheng, 2016; Sainath et al., 2017), and axonal mitochondrial transport has been linked to axon growth (Steketee et al., 2012; Cartoni et al., 2016; Lewis et al., 2016; Zhou et al., 2016). By live cell imaging with MitoTracker to visualize mitochondria, DRG neurons appeared to show increased anterograde versus retrograde mitochondrial movement along axons (FIG. 3 at A and B). […] (A and B) Representative images from CALI time lapse sequence are shown for DRGs cultured on laminin and treated with vehicle control (DMSO) versus 10 μM TubA for 1 h (A). BFP is shown in blue as an axonal marker and Mito-KR signal is shown in red. Boxed regions represent ROI for distal axon and growth cone that was subjected to photoactivation of Mito-KR to ablate mitochondria. […] (C and D) Quantifications of percentage of axons retracting (C) and retraction distance (D) from image sequences as in A are shown as average±SEM (n≥13 across three culture preparations; ***, P≤0.005 by one-way ANOVA with Bonferroni post hoc analysis). (E) Recovery of Mito-KR red fluorescence in photoactivated ROI from image sequences as in A is shown as average of normalized percentage recovery±SEM (n≥13 axons from three independent experiments; *, P≤0.05; **, P≤0.01; ***, P≤0.005 vs. t=0; ###, P≤0.005; ####, P≤0.001, #####, P≤0.0005 for TubA vs. control; and NS vs. t=0 s by one-way ANOVA with Bonferroni post hoc analysis). […]
# Quantification of growth cone mitochondria was performed using high-magnification images from living neurons transfected with either Mito-KR or incubated with MitoTracker. […] Only mitochondria that could be distinguished as a single mitochondrion were counted; if this was not possible, that growth cone was not included in the analysis. […]
# Vesicle trafficking was quantified using differential ImageJ Difference Tracker Plug-in (Andrews et al., 2010). […] Movement of ≥0.5 μm toward the axon shaft was counted as retracted. […]
compound,measurement,setting,value
"CN1CCc2c(c3ccccc3n2Cc2ccc(C(=O)NO)cc2)C1 [TubA, tubastatin]",mitochondrial profiles in growth cones,"10 μM TubA, 1 h vs vehicle",significant increase in mitochondrial profiles in the growth cones
same,"speed, track durations, directionality of axonal mitochondrial movements","HDAC6-inhibited (10 μM TubA) vs control, laminin",no significant differences
same,anterogradely vs retrogradely moving mitochondria in axons,HDAC6-inhibited cultures,more anterogradely than retrogradely moving mitochondria
